Reference: patent US9266835B2, “Quinoline derivatives useful as CB-1 inverse agonists” (JANSSEN PHARMACEUTICA NV, priority 2014, dated 2016)

Experiments:
[1] = target: Human CB1R (Cannabinoid receptor 1) (Homo sapiens (Human), UniProt P21554); test: CB-1 in vitro cAMP assay (HTRF), inverse agonism; assay type: cell-based; details: mean where tested more than once
Description: (§1) CB1 and CB2 receptors are Gi-coupled GPCR. Activation of CB1 and CB2 receptors results in a decrease in cAMP production. An inverse agonist of the CB1 or CB2 receptor results in the opposite effect, an increase of cAMP production. The principle of this assay is based on HTRF® technology (Homogeneous Time-Resolved Fluorescence). The method is a competitive immunoassay between native cAMP produced by cells and the cAMP labeled with the fluorophore d2. The tracer binding is quantified by a Mab anti-cAMP labeled with Eu3+TBP-NHS Cryptate (supplied as part of the assay kit). The specific signal (i.e. energy transfer) is inversely proportional to the concentration of cAMP in the standard or sample.
(§2) Human CB1R (Cannabinoid receptor 1) was stably transfected in HEK-293 cells (DiscoveRx, cat: 93-0200C1). Human CB2R (Cannabinoid receptor 2) was stably transfected in HEK-293 cells (DiscoveRx, cat: 93-0201C1). Cell cultures were maintained in media: DMEM (Invitrogen Cat#12430-054) supplemented with 10% HI FBS (Invitrogen Cat#16140-071), 1% L-glutamine (Invitrogen Cat#25030-081), 0.2 mg/ml Hygromycin B (Invitrogen Cat#10687-010), 600 μg/mL G418 (Invitrogen Cat#10131-035), and 1X Penn/Strep (Invitrogen 15140-122). After cell expansion, aliquots were cryo-stored in media containing 5% DMSO (Pierce Cat#20684).
(§3) One day prior to experiments media was warmed to 37° C. and the cryo-stored cells were thawed in a 37° C. water bath. The cells were then added to media (10× volume) and the mixture was centrifuged at 1000 RPM for 5 min. The supernate was removed and the cells were re-suspended in media. A sample of the cell suspension was evaluated on a Cedex XS automated cell counter (Innovatis Systems) to determine viable cells/ml. Additional media was added to the cells to achieve a final cell density of 4E5 cells/mL. The cells were then plated into 384 well PDL white solid bottom plates (Greiner, Cat#781945) at 20 μL per well using a Multidrop (Thermo Scientific). Cells were removed from Row P (location of cAMP standards). Two columns of cells were plated into a clear bottom 384 well PDL coated plate (Greiner, Cat#781944) to view confluence the day of the assay. The cell plates were lidded and stored for 15 minutes in a hood, then transferred to an incubator (37° C., 5% CO2, 95% humidity) overnight.
(§4) DMSO was added to all wells of 384 well V bottom polystyrene plate (Greiner, Cat#781280) except to columns 1 and 13, rows 0 and P and wells M13-M23 and N13-N23. Test compounds (60 μL, 10 mM) were added to Column 1 and 13 (A1 through N1 and A13 through L13). Test compounds were serially diluted 1/3 by transferring and mixing 20 μl sample with 40 μL DMSO.
(§5) DMSO (40 μL) was added to wells of 384 well V bottom polystyrene plate: O2 through O11, M14 through M23, N14 through N23, and O14 through O23. AM630 (also known as [6-iodo-2-methyl-1-[2-(4-morpholinyl)ethyl]-1H-indol-3-yl](4-methoxyphenyl)-methanone, Cayman Chemical, Cat#10006974) (60 μL, 10 mM) was added to 01; and 1-(2,4-dichlorophenyl)-7-[(4-fluorophenyl)methylene]-4,5,6,7-tetrahydro-N-1-piperidinyl-1H-indazole-3-carboxamide (60 μL, 10 mM) was added to N13. The control was serially diluted 1/3 by transferring and mixing 20 μl sample with 40 μL DMSO. This process resulted 11 doses per control, 10 mM to […].
(§6) Cells plated the day prior to the assay in clear bottom plates were viewed on an inverse microscope to ensure confluency in the range of 60-75%. […]

[2] = target: Human CB2R (Cannabinoid receptor 2) (Homo sapiens (Human), UniProt P34972); test: CB-2 in vitro cAMP assay (HTRF), inverse agonism; assay type: cell-based; details: mean where tested more than once
Description: as §1, §2, §3, §4, §5, §6

Sequence of Human CB1R (Cannabinoid receptor 1) (P21554 whole entry): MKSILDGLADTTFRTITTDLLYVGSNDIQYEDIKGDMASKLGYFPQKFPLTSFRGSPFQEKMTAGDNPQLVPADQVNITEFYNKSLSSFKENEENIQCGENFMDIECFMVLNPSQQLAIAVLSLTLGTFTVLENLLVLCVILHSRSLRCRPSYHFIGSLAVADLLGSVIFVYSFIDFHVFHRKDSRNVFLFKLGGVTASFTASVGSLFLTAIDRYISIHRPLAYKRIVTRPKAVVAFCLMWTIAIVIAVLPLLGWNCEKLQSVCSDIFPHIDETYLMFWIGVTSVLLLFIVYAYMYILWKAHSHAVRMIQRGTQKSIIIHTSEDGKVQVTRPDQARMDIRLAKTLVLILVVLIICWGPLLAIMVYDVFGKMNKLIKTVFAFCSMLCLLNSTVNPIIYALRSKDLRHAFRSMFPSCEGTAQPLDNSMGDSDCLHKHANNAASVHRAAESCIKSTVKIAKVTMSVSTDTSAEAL
Sequence of Human CB2R (Cannabinoid receptor 2) (P34972 whole entry): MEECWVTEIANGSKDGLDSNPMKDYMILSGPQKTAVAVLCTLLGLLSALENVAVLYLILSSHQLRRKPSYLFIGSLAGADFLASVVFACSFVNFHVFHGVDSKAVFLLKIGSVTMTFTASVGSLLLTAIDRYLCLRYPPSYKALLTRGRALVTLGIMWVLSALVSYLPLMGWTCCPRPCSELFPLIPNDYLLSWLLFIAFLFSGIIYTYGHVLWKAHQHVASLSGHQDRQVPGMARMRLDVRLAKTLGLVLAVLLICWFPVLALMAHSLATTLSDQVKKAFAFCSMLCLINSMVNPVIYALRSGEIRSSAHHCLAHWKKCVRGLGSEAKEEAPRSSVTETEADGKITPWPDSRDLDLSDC

SMILES | EC50 [1] | EC50 [2]
NCCCCNc1cc(C(c2ccc(Cl)cc2)c2ccc(Cl)cc2)cc2c(NC3CCN(S(=O)(=O)C(F)(F)F)CC3)cc(=O)[nH]c12 [Compound 141, 8-((4-aminobutyl)amino)-6-(bis(4-chlorophenyl)methyl)-4-((1-((trifluoromethyl)sulfonyl)piperidin-4-yl)amino)quinolin-2(1H)-one] | 625 nM | > 10000 nM
O=c1cc(C2=CCN(S(=O)(=O)C(F)(F)F)CC2)c2cc(C(c3ccc(Cl)cc3)c3ccc(Cl)cc3)ccc2[nH]1 [Compound 17, 6-(bis(4-chlorophenyl)methyl)-4-(1-((trifluoromethyl)sulfonyl)-1,2,3,6-tetrahydropyridin-4-yl)quinolin-2(1H)-one] | 827 nM | 80 nM
O=c1cc(/C=C/c2cccc(F)c2)c2cc(C(c3ccccc3)c3ccc(Cl)cc3)ccc2[nH]1 (stereo not shown) [Compound 32, 6-[(4-Chlorophenyl)(phenyl)methyl]-4-[(E)-2-(3-fluorophenyl)ethenyl]quinolin-2(1H)-one] | 3200 nM | > 10000 nM
O=C(O)Cc1ccc(Nc2cc(=O)[nH]c3ccc(C(c4ccc(Cl)cc4)c4ccc(Cl)cc4)cc23)cc1 [Compound 125, [4-({6-[Bis(4-chlorophenyl)methyl]-2-oxo-1,2-dihydroquinolin-4-yl}amino)phenyl]acetic acid] | 2480 nM | > 10000 nM
NC(=O)CC(=O)N1CCC(Nc2cc(=O)[nH]c3ccc(C(c4ccc(Cl)cc4)c4ccc(Cl)cc4)cc23)CC1 [Compound 106, 3-(4-((6-(bis(4-chlorophenyl)methyl)-2-oxo-1,2-dihydroquinolin-4-yl)amino)piperidin-1-yl)-3-oxopropanamide] | 1550 nM | 6500 nM
COC(=O)CCCCCOc1cc(NC2CCN(S(=O)(=O)C(F)(F)F)CC2)c2cc(C(c3ccc(Cl)cc3)c3ccc(Cl)cc3)ccc2n1 [Compound 534, Methyl 6-({6-[bis(4-chlorophenyl)methyl]-4-({1-[(trifluoromethyl)sulfonyl]-piperidin-4-yl}amino)quinolin-2-yl}oxy)hexanoate] | 2200 nM | > 10000 nM
CC(C)(C)OC(=O)N1CC[C@@H](Nc2cc(=O)[nH]c3ccc(C(c4ccc(Cl)cc4)c4nccs4)cc23)C1 (stereo partly drawn) [Compound 46, tert-Butyl (3R)-3-({6-[(4-chlorophenyl)(1,3-thiazol-2-yl)methyl]-2-oxo-1,2-dihydroquinolin-4-yl}amino)pyrrolidine-1-carboxylate] | 657 nM | > 10000 nM
O=c1cc(/C=C/c2ccccc2)c2cc(C(c3ccc(Cl)cc3)c3nccs3)ccc2[nH]1 (stereo not shown) [Compound 25, (E)-6-((4-chlorophenyl)(thiazol-2-yl)methyl)-4-styrylquinolin-2(1H)-one] | 816 nM | > 10000 nM
O=c1cc(Nc2ccc(CC(F)(F)F)cc2)c2cc(C(c3ccc(Cl)cc3)c3ccc(Cl)cc3)cc(Br)c2[nH]1 [Compound 93] | 15 nM | > 10000 nM

Continued, values first:

EC50 [1] | EC50 [2] | SMILES
94 nM | 2660 nM | CS(=O)(=O)N1CCC(Nc2cc(=O)[nH]c3ccc(C(c4ccc(Cl)cc4)c4ccc(Cl)cc4)cc23)CC1 [Compound 63, 6-[Bis(4-chlorophenyl)methyl]-4-{[1-(methylsulfonyl)piperidin-4-yl]amino}quinolin-2(1H)-one]
73 nM | > 10000 nM | O=c1cc(Nc2ccc(-c3ccccc3)cc2)c2cc(C(c3ccc(Cl)cc3)c3ccc(Cl)cc3)ccc2[nH]1 [Compound 133, 4-(Biphenyl-4-ylamino)-6-[bis(4-chlorophenyl)methyl]-quinolin-2(1H)-one]
169 nM | > 10000 nM | Cn1c(=O)cc(CCc2cccc(Cl)c2)c2cc(C(c3ccc(Cl)cc3)c3nccs3)ccc21 (stereo not shown) [Compound 9, 4-(3-chlorophenethyl)-6-((4-chlorophenyl)(thiazol-2-yl)methyl)-1-methylquinolin-2(1H)-one]
111 nM | 3700 nM | O=c1cc(NC2CCC(C(F)(F)F)CC2)c2cc(C(c3ccc(Cl)cc3)c3ccc(Cl)cc3)ccc2[nH]1 (stereo not shown) [Compound 88, 6-[Bis(4-chlorophenyl)methyl]-4-{[4-(trifluoromethyl)cyclohexyl]-amino}quinolin-2(1H)-one]
52 nM | 5400 nM | O=c1cc(NC2CCN(S(=O)(=O)C(F)(F)F)CC2)c2cc(C(O)(c3ccc(Cl)cc3)c3ccc(Cl)cc3)ccc2[nH]1 [Compound 73, 6-[Bis(4-chlorophenyl)(hydroxy)methyl]-4-({1-[(trifluoromethyl)sulfonyl]-piperidin-4-yl}amino)quinolin-(1H)-one]
10 nM | 840 nM | O=c1cc(NC2CCN(S(=O)(=O)C(F)(F)F)CC2)c2cc(C(c3ccc(Cl)cc3)c3ccc4c(c3)OCO4)ccc2[nH]1 (stereo not shown) [Compound 55, 6[1,3-Benzodioxo1-5-yl(4-chlorophenyl)methyl]-4-({1-[(trifluoromethyl)sulfonyl]-piperidin-4-yl}amino)quinolin-2(1H)-one]
22 nM | 7690 nM | O=c1cc(NC2CCN(S(=O)(=O)C(F)(F)F)CC2)c2cc(C(c3ccc(O)cc3)c3ccc(Cl)cc3)ccc2[nH]1 (stereo not shown) [Compound #66, 6-((4-chlorophenyl)(4-hydroxyphenyl)methyl)-4-((1-((trifluoromethyl)sulfonyl)piperidin-4-yl)amino)quinolin-2(1H)-one]
230 nM | > 3300 nM | O=c1cc(N[C@H]2CCN(S(=O)(=O)C(F)(F)F)C2)c2cc(C(c3ccc(Cl)cc3)c3nccs3)ccc2[nH]1 (stereo partly drawn) [Compound 48, 6-[(4-Chlorophenyl)(1,3-thiazol-2-yl)methyl]-4-({(3S)-1-[(trifluoromethyl)sulfonyl]-pyrrolidin-3-yl}amino)quinolin-2(1H)-one]
59 nM | > 10000 nM | O=c1cc(/C=C/c2ccc(C(F)(F)F)cc2)c2cc(C(c3ccc(Cl)cc3)c3cccs3)ccc2[nH]1 (stereo not shown) [Compound 19, 6-[(4-Chlorophenyl)(thiophen-2-yl)methyl]-4-{(E)-2-[4-(trifluoromethyl)phenyl]-ethenyl}quinolin-2(1H)-one]
23 nM | > 10000 nM | COCCOc1cc(NC2CCN(S(=O)(=O)C(F)(F)F)CC2)c2cc(C(c3ccc(Cl)cc3)c3ccc(Cl)cc3)ccc2n1 [Compound 530, 6-(bis(4-chlorophenyl)methyl)-2-(2-methoxyethoxy)-N-(1-((trifluoromethyl)sulfonyl)piperidin-4-yl)quinolin-4-amine]
254 nM | > 10000 nM | O=C(N1CC=C(c2cc(=O)[nH]c3ccc(C(c4ccc(Cl)cc4)c4ccc(Cl)cc4)cc23)CC1)C(F)(F)F [Compound 14, 6-(bis(4-chlorophenyl)methyl)-4-(1-(2,2,2-trifluoroacetyl)-1,2,3,6-tetrahydropyridin-4-yl)quinolin-2(1H)-one]
10 nM | 4200 nM | O=C(CC(F)(F)F)N1CCC(Nc2cc(=O)[nH]c3ccc(C(c4ccc(Cl)cc4)c4ccc(Cl)cc4)cc23)CC1 [Compound 69, 6-[Bis(4-chlorophenyl)methyl]-4-{[1-(3,3,3-trifluoropropanoyl)piperidin-4-yl]amino}quinolin-2(1H)-one]
140 nM | > 10000 nM | Clc1ccc(C(c2ccsc2)c2ccc3nccc(/C=C/c4ccccc4)c3c2)cc1 (stereo not shown) [Compound 509, 6-[(4-Chlorophenyl)(thiophen-3-yl)methyl]-4-[(E)-2-phenylethenyl]quinoline]
36 nM | > 10000 nM | CC(Nc1cc(=O)[nH]c2ccc(C(c3ccc(Cl)cc3)c3ccc(Cl)cc3)cc12)c1cccc(C(F)(F)F)c1 (stereo not shown) [Compound 74, 6-[Bis(4-chlorophenyl)methyl]-4-({1-[3-(trifluoromethyl)phenyl]ethyl}amino)quinolin-2(1H)-one]
